Laboratory results published in patent publication US20080161245A1, “Protein-Binding Anthracycline Peptide Derivatives and Drugs Containing Them” (KTB Tumorforschungsgesellschaft mbH, priority 2005, published 2008).
*: point of attachment. Hexanoyl(6-maleimido) = O=C1C=CC(=O)N1CCCCCC(=O)*

Experiments:
CWR22 tissue homogenate = test: Cleavage study of the doxorubicin dipeptide with CWR22 tissue homogenate (HPLC); format: in vitro ADME; conditions: pH 7.4, 37° C., anthracycline 100 μM, 5 minutes, 6 hours, 20 hours, FIG. 2
Method: FIG. 2 is chromatogram of a cleavage study of the doxorubicin-dipeptide Doxo-Arg-Ser with PSA-positive prostate carcinoma CWR22. Chromatogram of an incubation study of the cleaved doxorubicin-dipeptide [Doxo-Arg-Ser] with CWR22 homogenate recorded at 37° C. after 0 hours, 6 hours, and 20 hours. The concentration of anthracycline was […]. HPLC conditions: see FIG. 1. The CWR22 homogenate (250 mg/l mL) was produced by homogenization of CWR22 xenograft tumors in 50 mM tris-HCl buffer at pH 7.4 containing 1 mM monothioglycerol.
An incubation study at 37° C. with CWR22 tissue homogenate at pH 7.4 was conducted with the doxorubicin dipeptide (Doxo-Arg-Ser) obtained as described in Example 2. The concentration of anthracycline was 100 μM. HPLC chromatography was conducted under the conditions of Example 2 after 5 minutes, 6 hours, and 20 hours.

[1] = molecular target: T1, cysteine-34 position of endogenous albumin (Homo sapiens, UniProt P02768); test: Incubation study with human plasma (binding to albumin, HPLC); conditions: 37° C., 100 μM, after 5 and 90 minutes, FIG. 4
T1 construct: cysteine-34 position of endogenous albumin in blood plasma; from tissue; host or cells: human blood plasma
Method: FIG. 4 is chromatogram of an incubation study of compound 3 with human plasma at 37° C. after 5 and 90 minutes. Chromatogram of an incubation study of compound 3 with human plasma at 37° C. after 5 and 90 minutes. The concentration of the anthracycline was 100 μM. HPLC chromatography conditions: see FIG. 3.

[2] = system: PSA-positive xenograft model CWR22; test: In-vivo activity in the PSA-positive xenograft model (CWR22); set-up: species or system hairless mice
Method: The course of the tumor growth of the subcutaneously growing PSA-positive xenograft model CWR22, which was treated with structure 3 [dose (i.v.): 2×13.3 μmol/kg (=2×8 mg/kg doxorubicin equivalents) on days 13 and 20; 3×39.9 μmol/kg (=3×24 mg/kg doxorubicin equivalents) on days 13, 20, and 27; and 3×59.9 μmol/kg (=3×36 mg/kg doxorubicin equivalents) on days 13, 20, and 27] is shown in FIG. 6.
Animals: hairless mice. Stock solution of compound 3:6.0 mg/mL in 10 mM sodium phosphate, 5% D-glucose (pH 6.4); control (buffer): glucose-phosphate buffer (10 mM sodium phosphate, 5% D-glucose—pH 6.4) on days 13 and 20.
The course of the tumor growth of the subcutaneously growing PSA-positive xenograft model CWR22, which was treated with structure 1 [dose (i.v.): 2×13.3 μmol/kg (=2×8 mg/kg doxorubicin equivalents) on days 13 and 20; 3×26.3 μmol/kg (=3×16 mg/kg doxorubicin equivalents) or with buffer (control) on days 13 and 20], is shown in FIG. 7.
Animals: hairless mice. Stock solution of compound 1:7.4 mg/mL in 10 mM sodium phosphate, 5% D-glucose (pH 6.4); control (buffer): glucose-phosphate buffer (10 mM sodium phosphate, 5% D-glucose—pH 6.4) on days 13 and 20.

cleavage in tumor tissue homogenate (CWR22 tissue homogenate) | Substance | binding to albumin in blood plasma [1] | antitumoral effect (relative tumor volume) ([2]; i.v. 2×13.3 μmol/kg on days 13 and 20, 3×26.3 μmol/kg, subcutaneous CWR22, FIG. 7) | antitumoral effect (relative tumor volume) ([2]; i.v. 2×13.3, 3×39.9 and 3×59.9 μmol/kg on days 13, 20 (27), subcutaneous CWR22, FIG. 6)
cleaved to doxorubicin in tumor tissue | Doxo-Arg-Ser | – | – | –
– | EMC-Arg-Arg-Ser-Ser-Tyr-Tyr-Ser-Gly-Doxo ({Hexanoyl(6-maleimido)}-RRSSYYSG-doxorubicin) [compound 3] | binds selectively within a few minutes | good antitumoral effect | good antitumoral effect
